Assay results published in patent US12708655B2, “Botanicals as WNT/beta-catenin activators, molecular pathway regulators, tissue regenerators and health biomarker regulators” (Arbor Life Holdings, Ltd., priority 2020, dated 2026).
Where “and” joins values, the source holds several entries; their conditions need not be identical. Identical values can stand only once.

How the values were obtained:
[1] = test system: male pattern baldness; conditions: human, in vivo; cited from earlier work
[2] = test system: human dermal papilla stem cells (HDPSCs); assay: MTT assay of HDPSC growth/proliferation in culture; type: cell-based; conditions: for MTT signal (absorbance at 570 nm), mean relative to Control 1.00: n = 6; for Change vs Control (stem cells, MTT): Table 5e; for Change in Stem Cells (MTT signal, mean relative to Control 1.00): n = 29-30
Experimental: Passage 3 human dermal papilla stem cells (HDPSCs) from a person were purchased from Sigma-Aldrich (Burlington, ON, Canada) and all work was performed under Brock University Research Ethics Board approval (File 15-138). The cells were grown on collagen-coated plates in a 50:50 mixture of Dulbecco's modified Eagles medium (DMEM):Ham's F12 media (Sigma) supplemented with 10% fetal bovine serum (FBS), 1% Gluta-Max™, 0.1% penicillin/streptomycin, 20 ng/mL human fibroblast growth factor, and 10 ng/mL human epidermal growth factor (complete medium). Cell cultures were maintained in incubators set to 5% CO2, 37° C. and 100% humidity. Experiments were performed under conditions of unregulated O2 (18-19%), except where indicated. Cells initially underwent 5-7 passages and were then stored frozen in vials of one million cells each in the above medium supplemented with 10% dimethylsulfoxide (DMSO) and stored in liquid nitrogen. For each experiment, a single vial was thawed, grown overnight, and used to seed 96-well plates.
Botanical extracts and Biotin were screened for their ability to stimulate HDPSC growth in culture using a 96-well plate format with MTT assay as an endpoint. Cells were treated for 72 h with various concentrations and combinations (as indicated, range; 1×10^−1-1×10^−5) of extracts (Table 5a). All the ingredients were able to stimulate growth or cell proliferation above control to varying rates and by varied concentrations.
Cell proliferation was assessed by MTT [3-(4,5-dimethylthiazol-2-yl)-2,5-diphenyltetrazolium bromide] assay according to the manufacturer's recommendations. HDPSCs were seeded onto collagen-coated 96-well plates at~2000 cells/well and grown in complete medium overnight. The next day, indicated concentrations of botanical extracts were added to individual wells.
For all constituents, lyophilized extracts (botanicals) or oil (Biotin) were initially dissolved in PBS at the following concentrations: Biotin 0.25 mg/mL; grapeseesd 7.5 mg/mL; skullcap 1.7 mg/mL; eclipta 3.0 mg/mL. These solutions were sterilized by passing through a 0.45 μm syringe filter. The following dilutions of these solutions, referred to as “Stock Solutions”, were then used for experimental treatments in cell culture media: Biotin (1:100); grapeseed (1:1000); skullcap (1:1000); eclipta (1:100). DMEM media and extracts were refreshed each day. The following day, the MT assay was performed to evaluate cell growth. For this, all media/extract was removed from wells and replaced with phenol-red free DMEM. The cells were incubated for 2 h at 37° C. in a tissue culture incubator. Solubilization solution was then applied to lyse cells and the mixture was triturated repeatedly. The solubilized solutions from each well were then transferred to a fresh 96-well plate and absorbance read at 570 nm. Experiments were tested for 3 different concentration models and one was repeated three times at 5% oxygen and three times at 18% oxygen.
Botanical extracts of grapeseed, skullcap and eclipta and Biotin were screened for their ability to stimulate HDPSC growth in culture using a 96-well plate format with MT assay as an endpoint. Cells were treated for 72 h with various concentrations and combinations with further stock dilutions in the range; 10^−1-10^−5 of the extracts. […] (See Tables 5a, b, c, d, e, f, and g).

[3] = test system: Wnt/beta-Catenin signaling; assay: TopFlash/FopFlash luciferase assay of Wnt/beta-Catenin signaling in transfected HDPSCs; type: cell-based, human
Experimental: The cells were then seeded onto a collagen coated 96-well plate (white opaque with clear bottom, Greiner Bio-one 655098) using 2500 cells per well on average with 200 μL supplemented D-MEM. […] In a 1.5 or 2 mL centrifuge tube, 60 μL FuGene® 6 was added to 500 μL DMEM (with no supplements or antibiotics) medium and mixed gently, then incubated for 5 min. 1) and 2) were combined and mixed gently, then incubated for 20 min at room temperature with occasional gentle mixing by hand. Old medium was removed from all wells and replaced with 100 μL fresh supplemented D-MEM. […] was then added to each well and mixed gently by pipette. Medium was changed after 4-6 h with 100 μL fresh supplemented DMEM. […] The treatments were performed three times once a day for a total of three days of treatment. Medium was removed from each well and wells were washed with 50 μL room temperature PBS so that no colour could be seen leftover. 20 μL lysis solution was added to each well and hand shaken every few minutes for a total of 15 mins. The fluorescence spectrophotometer (Varian Cary Eclipse model) was set to: • Data mode: Bio/Chemi-luminescence • Emission wavelength: 560.00 nm • Stop time: 0.8 mins • PMT Detector Voltage: […] 3 of the duplicates of the wells from 3) were used to count the cells in each well and estimate a count for each type of extract. Stimulation of stem cell growth and proliferation can be achieved by activation of the Wnt/beta-Catenin signaling pathway. Having confirmed proliferation of […] by exposure to grapeseed, skullcap, eclipta and Biotin and combinations thereof, a series of studies were conducted to detect and measure the upregulation of the Wnt/beta-Catenin protein as the activation mechanism of the HDPSC proliferation. The method selected for the Wnt/beta-Catenin protein studies was transfection with Topflash and Fopflash plasmids followed by measuring luciferase activity by bioluminescence assays. Topflash and Fopflash plasmids were obtained as bacterial stab cultures from Add gene. Plasmid DNA was purified using the Norgen Biotek kit (info). […] Old medium was removed and replaced with 100 μL fresh complete medium. 20 μL of DNA/FuGENETM 6 mixture was added and mixed gently by pipette. After 4-6 h, medium was removed and replaced with 100 μL fresh complete medium. Botanical extracts were then added to each well. Treatments lasted 72 h with media/extracts refreshed every 24 h. Activation of Wnt/beta-Catenin signaling was assayed as luciferase activity using standard bioluminescence assays. Media from each well was removed and cells were washed twice with 50 μL PBS. 20 μL of cell lysis solution was then added to each well and the plate was incubated at room temperature for 15 min. Luminescence at 560±10 nm was measured using a Varian Cary Eclipse fluorescence spectrophotometer. […] Following transfection, cells were treated for three days as for the MTT assay and then assayed for luciferase activity using standard assays. […] To evaluate whether the extract combinations with Biotin identified in FIG. 1 activate Wnt/beta-Catenin signaling, […] were transfected with Topflash plasmid, which contains the luciferase cDNA and several tandem repeats of the Wnt/beta-Catenin response element.^230 Following transfection, cells were treated for three days as for the MTT assay and then assayed for luciferase activity using standard assays.

[4] = test system: androgentic alopecia and telogen effluvium in Women; assay: Comparative analysis of clinical trial results in women versus standard of care, adjusted to 24 weeks; type: in vivo, human
[5] = test system: androgenetic alopecia and telogen effluvium in Men; assay: Comparative analysis of clinical trial results in men versus standard of care, adjusted to 24 weeks; type: in vivo, human
[6] = test system: procaspase-8, caspase-3, procaspase-9, Bax, p53, Bcl-2, Bcl-XL; conditions: mouse model of hair loss; cited from earlier work

In the case of procyanidin, the adverse side effects [1] is listed as “without any adverse side effects”.
For `O=C(O)CCCC[C@@H]1SC[C@@H]2NC(=O)N[C@@H]21` [Biotin], the “HDPSC growth in the MTT assay, result in words” value ([2]; 72 h, stock dilutions 10^−1-10^−5) was “statistically significant reduction in the cell population”, the “MTT signal (absorbance at 570 nm), mean relative to Control 1.00” value ([2]; Table 5b, dilution 1/10^3, 5% oxygen, 72 h) was 1.12 and the “MTT signal (absorbance at 570 nm), mean relative to Control 1.00” value ([2]; Table 5b, dilution 1/10^4, 5% oxygen, 72 h) was 0.95. For the same compound, the “MTT signal (absorbance at 570 nm), mean relative to Control 1.00” value ([2]; Table 5b, dilution 1/10^5, 5% oxygen, 72 h) was 0.69, the “MTT signal (absorbance at 570 nm), mean relative to Control 1.00” value ([2]; Table 5c, dilution 1/10^3, 5% oxygen, 72 h) was 0.76 and the “MTT signal (absorbance at 570 nm), mean relative to Control 1.00” value ([2]; Table 5c, dilution 1/10^4, 5% oxygen, 72 h) was 0.70. The “MTT signal (absorbance at 570 nm), mean relative to Control 1.00” value ([2]; Table 5c, dilution 1/10^5, 5% oxygen, 72 h) was 0.95, the “Change vs Control (stem cells, MTT)” value ([2]; dilution 1/10^3, 5% oxygen) was 52.0% and the “Change vs Control (stem cells, MTT)” value ([2]; dilution 1/10^5, 5% oxygen) was −21.0%. The “Change in Stem Cells (MTT signal, mean relative to Control 1.00)” value ([2]; Table 5d, dilution of stock 1/10^4, 5% oxygen, 72 h) was 1.09, the “Change in Stem Cells (MTT signal, mean relative to Control 1.00)” value ([2]; Tables 5f/5g, dilution of stock 1/10^3, 18% oxygen, 72 h) was 0.99 and the “Change in Stem Cells (MTT signal, mean relative to Control 1.00)” value ([2]; Tables 5f/5g, dilution of stock 1/10^4, 18% oxygen, 72 h) was 1.21. For the same compound, the “Change in Stem Cells (MTT signal, mean relative to Control 1.00)” value ([2]; Tables 5f/5g, dilution of stock 1/10^5, 18% oxygen, 72 h) was 0.98, the “Change in Stem Cells (MTT signal, mean relative to Control 1.00)” value ([2]; Tables 5d/5e, dilution of stock 1/10^3, 5% oxygen, 72 h) was 1.52 and the “Change in Stem Cells (MTT signal, mean relative to Control 1.00)” value ([2]; Tables 5d/5e, dilution of stock 1/10^5, 5% oxygen, 72 h) was 0.79. The “HDPSC population reduced by” value ([2]; stock dilution 10^−5) was 21%, the “HDPSC Proliferation (MTT, means % relative to Control = 100%)” value ([2]; stock dilution 10^−5, 5% oxygen, 72 h) was 79% and the “relative effect on Wnt/beta-Catenin Signaling (Control=100)” value ([3]; No Biotin, 18% oxygen, 72 h) was 97. For the same compound, the “luciferase activity in TopFlash transfected HDPSCs, individual replicate measurements (single treatments)” value ([3]; Table 9b, replicates 1-28, 18% oxygen, 72 h) was 21.57 arbitrary luminescence values and 17.5 arbitrary luminescence values and 14.29 arbitrary luminescence values and 19.58 arbitrary luminescence values (2×) and 23.45 arbitrary luminescence values and 26.25 arbitrary luminescence values and 19.99 arbitrary luminescence values and 20.75 arbitrary luminescence values (2×) and 12.46 arbitrary luminescence values and 7.884 arbitrary luminescence values and 11.65 arbitrary luminescence values and 12.51 arbitrary luminescence values (2×) and 16.28 arbitrary luminescence values and 20.14 arbitrary luminescence values and 20.65 arbitrary luminescence values and 10.28 arbitrary luminescence values and 7.63 arbitrary luminescence values and 10.94 arbitrary luminescence values and 15.57 arbitrary luminescence values and 18.62 arbitrary luminescence values and 20.5 arbitrary luminescence values and 14.24 arbitrary luminescence values and 15.72 arbitrary luminescence values and 22.03 arbitrary luminescence values and 23.3 arbitrary luminescence values, the “luciferase activity in TopFlash transfected HDPSCs, individual replicate measurements (combination experiment with Biotin)” value ([3]; Table 9d, replicates 1-21, 18% oxygen, 72 h) was 79.5782 arbitrary luminescence values and 105.8972 arbitrary luminescence values and 78.0728 arbitrary luminescence values and 83.6682 arbitrary luminescence values and 87.4832 arbitrary luminescence values and 90.9168 arbitrary luminescence values and 94.2910 arbitrary luminescence values and 100.5561 arbitrary luminescence values and 22.6868 arbitrary luminescence values and 41.6603 arbitrary luminescence values and 37.0416 arbitrary luminescence values and 33.2163 arbitrary luminescence values and 44.2139 arbitrary luminescence values and 48.4257 arbitrary luminescence values and 95.4836 arbitrary luminescence values and 110.3368 arbitrary luminescence values and 109.6925 arbitrary luminescence values and 129.5662 arbitrary luminescence values and 112.3295 arbitrary luminescence values and the “luciferase activity in TopFlash transfected HDPSCs, mean (single treatments)” value ([3]; Tables 9a/9b, 18% oxygen, 72 h, 560 ± 10 nm, 27-28 replicates) was 17.0 ± 0.9 arbitrary luminescence values and 17.02 arbitrary luminescence values. For the same compound, the “luciferase activity in TopFlash transfected HDPSCs, mean (combination experiment with Biotin)” value ([3]; Tables 9c/9d, 18% oxygen, 72 h, 18-20 replicates) was 79.2 ± 7.3 arbitrary luminescence values and 79.2167 arbitrary luminescence values, the “relative effect on Wnt/beta-Catenin Signaling (Control=100)” value ([3]; With Biotin, 18% oxygen, 72 h) was 99 and the “% Change vs Control / Wnt/β-catenin Signal Upregulation of Combinations vs Control” value ([3]; combination with Biotin (or Biotin alone), dilution 10^−3, 18% oxygen) was −1.0%. For the same compound, the “effect of Biotin on Wnt/beta-Catenin signaling upregulated by botanical extracts” value ([3]; tested in combination with botanical extracts) was “attenuating or inhibiting effect”.
In the case of `Nc1cc(N2CCCCC2)nc(N)[n+]1[O-]` [2% minoxidil, minoxidil], the “Efficacy Factor Multiple vs 2% Minoxidil” value [4] is reported as 1.0 and the “Efficacy Factor Multiple vs 2% Minoxidil” value [5] is reported as 1.0.
For `Nc1cc(N2CCCCC2)nc(N)[n+]1[O-]` [5% minoxidil, minoxidil], the “Efficacy Factor Multiple vs 2% Minoxidil” value [4] was 1.0 and the “Efficacy Factor Multiple vs 2% Minoxidil” value [5] was 1.9.
For `CC(C)(O)[C@@H]1CC[C@](C)([C@H]2[C@@H](O)C[C@@]3(C)[C@@H]4C[C@H](O[C@@H]5O[C@H](CO)[C@@H](O)[C@H](O)[C@H]5O)[C@H]5C(C)(C)[C@@H](O[C@@H]6OC[C@@H](O)[C@H](O)[C@H]6O)CC[C@@]56C[C@@]46CC[C@]23C)O1` [Astragaloside IV], the “effect on Bax, p53, Bcl-2 and Bcl-XL” value [6] is given as “down-regulation of Bax and p53 (pro-apoptotic molecules), and up-regulation of the anti-apoptotic Bcl-2 and Bcl-XL molecules” and the “effect on procaspase-8, caspase-3 and procaspase-9” value [6] is given as “blocked the procaspase-8, resulting in the inhibition of the pro-apoptosis enzymes caspase-3 and procaspase-9 activities”.
